Laboratory results taken from patent US8293732B2, “Antibacterial quinoline derivatives” (Janssen Pharmaceutica N.V., priority 2006, dated 2012).
In brackets after ≈: the same amount, converted by molar mass.

Legend:
[1] = system: Streptococcus pneumoniae (ATCC6305); experiment: In-vitro anti-bacterial microtitre plate assay, IC90 determination (SPN 1 6305); format: cell-based; conditions: 90% inhibitory concentration for bacterial growth, 37° C., resazurin fluorescence; for IC90 values SPN 1 6305: 24 hours; for IC90: Streptococcus pneumoniae, ATCC6305, 24 h
Protocol: (§1) The bacteria used in this study were grown overnight in flasks containing 100 ml Mueller-Hinton Broth (Becton Dickinson—cat. no. 275730) in sterile de-ionized water, with shaking, at 37° C. Stocks (0.5 ml/tube) were stored at −70° C. until use. Bacteria titrations were performed in microtiter plates to detect the TCID50, in which the TCID50 represents the dilution that gives rise to bacterial growth in 50% of inoculated cultures.
(§2) In general, an inoculum level of approximately 100 TCID50 was used for susceptibility testing.
(§3) Flat-bottom, sterile 96-well plastic microtiter plates were filled with 180 μl of sterile deionized water, supplemented with 0.25% BSA. Subsequently, stock solutions (7.8× final test concentration) of compounds were added in 45 μl volumes in column 2. Serial five-fold dilutions (45 μl in 180 μl) were made directly in the microtiter plates from column 2 to reach column 11. Untreated control samples with (column 1) and without (column 12) inoculum were included in each microtiter plate. Depending on the bacteria type, approximately 10 to 60 CFU per well of bacteria inoculum (100 TCID50), in a volume of 100 μl in 2.8× Mueller-Hinton broth medium, was added to the rows A to H, except column 12. The same volume of broth medium without inoculum was added to column 12 in row A to H. The cultures were incubated at 37° C. for 24 hours under a normal atmosphere (incubator with open air valve and continuous ventilation). At the end of incubation, one day after inoculation, the bacterial growth was quantitated fluorometrically. Therefore resazurin (0.6 mg/ml) was added in a volume of 20 μl to all wells 3 hours after inoculation, and the plates were re-incubated overnight. A change in colour from blue to pink indicated the growth of bacteria. The fluorescence was read in a computer-controlled fluorometer (Cytofluor Biosearch) at an excitation wavelength of 530 nm and an emission wavelength of 590 nm. The % growth inhibition achieved by the compounds was calculated according to standard methods.
(§4) STA 29213 means Staphylococcus aureus (ATCC29213); SPN 6305 means Streptococcus pneumoniae (ATCC6305); MSM 607 means M. Smegmatis (ATCC607); ATCC means […].

[2] = system: M. Smegmatis (ATCC607); experiment: In-vitro anti-bacterial activity against strain M. Smegmatis ATCC607; format: cell-based; conditions: 90% inhibitory concentration for bacterial growth, 37° C., Alamar Blue fluorescence; for IC90 values MSM 1 ATCC607: 48 hours; for IC90: Mycolicibacterium smegmatis, ATCC607, 48 h, read-out: IC90 values MSM 1 ATCC607
Protocol: Flat-bottom, sterile 96-well plastic microtiter plates were filled with 180 μl of sterile deionized water, supplemented with 0.25% BSA. Subsequently, stock solutions (7.8× final test concentration) of compounds were added in 45 μl volumes to a series of duplicate wells in column 2 so as to allow evaluation of their effects on bacterial growth. Serial five-fold dilutions (45 μl in 180 μl) were made directly in the microtiter plates from column 2 to 11 using a customised robot system (Zymark Corp., Hopkinton, Mass.). Pipette tips were changed after every 3 dilutions to minimize pipetting errors with high hydrophobic compounds. Untreated control samples with (column 1) and without (column 12) inoculum were included in each microtiter plate. Approximately 250 CFU per well of bacteria inoculum, in a volume of 100 μl in 2.8× Mueller-Hinton broth medium, was added to the rows A to H, except column 12. The same volume of broth medium without inoculum was added to column 12 in row A to H. The cultures were incubated at 37° C. for 48 hours in a humidified 5% CO2 atmosphere (incubator with open air valve and continuous ventilation). At the end of incubation, two days after inoculation, the bacterial growth was quantitated fluorometrically. Therefore Alamar Blue (10×) was added to all wells in a volume of 20 μl and plates were incubated for another 2 hours at […]
The fluorescence was read in a computer-controlled fluorometer (Cytofluor, Biosearch) at an excitation wavelength of 530 nm and an emission wavelength of 590 nm (gain 30).
as §4

[3] = system: Staphylococcus aureus (ATCC29213); experiment: In-vitro anti-bacterial microtitre plate assay, IC90 determination (STA 1 B29213); format: cell-based; conditions: 90% inhibitory concentration for bacterial growth, 37° C., resazurin fluorescence; for IC90 values STA 1 B29213: 24 hours; for IC90: Staphylococcus aureus, ATCC29213, 24 h
Protocol: as §1, §2, §3, §4

COc1nc2ccc(Br)cc2cc1C(c1ccccc1)C(O)(CCCCN(C)C)COc1ccccc1 (single isomer, unassigned) [Compound 2]
IC90 values SPN 1 6305 [1]: 2.2 µg/mL (≈ 3.9 µM)
IC90 values MSM 1 ATCC607 [2]: 1.8 µg/mL (≈ 3.19 µM)
melting point: 151 °C
IC90 values STA 1 B29213 [3]: 4.5 µg/mL (≈ 7.99 µM)

COc1ccc(-c2cccc(C(O)(CCCCN(C)C)C(c3ccccc3)c3cc4cc(Br)ccc4nc3OC)c2)cc1 (single isomer, unassigned) [Compound 38]
IC90 [1]: 2.02 µg/mL (≈ 3.16 µM)
IC90 values MSM 1 ATCC607 [2]: 10.14 µg/mL (≈ 15.9 µM)
IC90 [3]: 2.02 µg/mL (≈ 3.16 µM)

COc1nc2ccccc2cc1C(c1ccc(-c2cccnc2)cc1)C(O)(CCCCN(C)C)c1ccc2ccccc2c1 (single isomer, unassigned) [Compound 7b]
IC90 values SPN 1 6305 [1]: 1.85 µg/mL (≈ 3.18 µM)
IC90 values MSM 1 ATCC607 [2]: 1.5 µg/mL (≈ 2.58 µM)
IC90 values STA 1 B29213 [3]: 1.8 µg/mL (≈ 3.09 µM)

COc1nc2ccccc2cc1C(c1cccc(-c2cnc3ccccc3c2)c1)C(O)(CCCCN(C)C)c1ccc2ccccc2c1 (single isomer, unassigned) [Compound 16]
IC90 [1]: 2 µg/mL (≈ 3.17 µM)
IC90 [2]: 2 µg/mL (≈ 3.17 µM)
melting point: 141 °C
IC90 [3]: 2 µg/mL (≈ 3.17 µM)

COc1nc2ccc(Br)cc2cc1C(c1ccccc1)C(O)(CCCCN(C)C)c1cccc(/C=C/c2ccccc2)c1 (single isomer, unassigned) [Compound 55]
IC90 values SPN 1 6305 [1]: 0.898 µg/mL (≈ 1.41 µM)
IC90 values MSM 1 ATCC607 [2]: 1.792 µg/mL (≈ 2.82 µM)
IC90 values STA 1 B29213 [3]: 2.01 µg/mL (≈ 3.16 µM)

COc1nc2ccc(Br)cc2cc1C(c1ccccc1)C(O)(CCCCN1CCN(C)CC1)COCc1ccccc1 (single isomer, unassigned) [Compound 27]
IC90 values SPN 1 6305 [1]: 2.2 µg/mL (≈ 3.48 µM)
IC90 values MSM 1 ATCC607 [2]: 2.0 µg/mL (≈ 3.16 µM)
IC90 values STA 1 B29213 [3]: 4.5 µg/mL (≈ 7.11 µM)

COc1nc2ccccc2cc1C(c1ccc(-c2ccoc2)cc1)C(O)(CCCCN(C)C)c1ccc2ccccc2c1 (single isomer, unassigned) [Compound 12]
IC90 [1]: 2 µg/mL (≈ 3.5 µM)
IC90 [2]: 1.8 µg/mL (≈ 3.15 µM)
IC90 [3]: 1.8 µg/mL (≈ 3.15 µM)

COc1nc2ccccc2cc1C(c1ccc(-c2ccncc2)cc1)C(O)(CCCCN(C)C)c1ccc2ccccc2c1 (single isomer, unassigned) [Compound 48]
IC90 values MSM 1 ATCC607 [2]: 1.04 µg/mL (≈ 1.79 µM)
melting point: 210 °C
IC90 values STA 1 B29213 [3]: 1.84 µg/mL (≈ 3.16 µM)

COc1nc2ccc(Br)cc2cc1C(c1ccccc1)C(O)(CCCCN1CCN(C)CC1)COc1ccc(C)cc1 (single isomer, unassigned) [Compound 24]
IC90 values SPN 1 6305 [1]: 10.0 µg/mL (≈ 15.8 µM)
IC90 values MSM 1 ATCC607 [2]: 10.0 µg/mL (≈ 15.8 µM)
melting point: 168 °C
IC90 values STA 1 B29213 [3]: 39.9 µg/mL (≈ 63.1 µM)

COc1nc2ccccc2cc1C(c1ccc(-c2ccoc2)cc1)C(O)(CCCCN(C)C)c1ccc2ccccc2c1 (single isomer, unassigned) [Compound 13]
IC90 values SPN 1 6305 [1]: 2.0 µg/mL (≈ 3.5 µM)
IC90 values MSM 1 ATCC607 [2]: 1.3 µg/mL (≈ 2.28 µM)
melting point: 197 °C
IC90 values STA 1 B29213 [3]: 1.8 µg/mL (≈ 3.15 µM)

COc1nc2ccc(Br)cc2cc1C(c1ccc2c(c1)OCO2)C(O)(CCN(C)C)c1ccccc1 (single isomer, unassigned) [Compound 29]
IC90 values SPN 1 6305 [1]: 0.4 µg/mL (≈ 0.728 µM)
IC90 values MSM 1 ATCC607 [2]: 1.7 µg/mL (≈ 3.09 µM)
IC90 values STA 1 B29213 [3]: 3.1 µg/mL (≈ 5.64 µM)

COc1nc2ccc(Br)cc2cc1C(c1ccc(Cl)cc1)C(O)(CCCCN(C)C)COc1ccccc1 (single isomer, unassigned) [Compound 4]
IC90 values SPN 1 6305 [1]: 2.4 µg/mL (≈ 4.01 µM)
IC90 values MSM 1 ATCC607 [2]: 1.9 µg/mL (≈ 3.18 µM)
melting point: 118 °C
IC90 values STA 1 B29213 [3]: 1.9 µg/mL (≈ 3.18 µM)

COc1nc2ccc(Br)cc2cc1C(c1ccccc1)C(O)(CCCCN(C)C)COc1ccc(C)cc1 (single isomer, unassigned) [Compound 6]
IC90 values SPN 1 6305 [1]: 5.2 µg/mL (≈ 9 µM)
IC90 values MSM 1 ATCC607 [2]: 1.8 µg/mL (≈ 3.12 µM)
melting point: 130 °C
IC90 values STA 1 B29213 [3]: 9.2 µg/mL (≈ 15.9 µM)

COc1nc2ccccc2cc1C(c1ccc(-c2cccs2)cc1)C(O)(CCCCN(C)C)c1ccc2ccccc2c1 (single isomer, unassigned) [Compound 14]
IC90 [1]: 2.3 µg/mL (≈ 3.92 µM)
IC90 [2]: 1.9 µg/mL (≈ 3.24 µM)
IC90 [3]: 1.9 µg/mL (≈ 3.24 µM)

COc1nc2ccc(Br)cc2cc1C(c1ccccc1)C(O)(CCCCN(C)C)COc1ccccc1 (single isomer, unassigned) [Compound 1]
IC90 values SPN 1 6305 [1]: 8.9 µg/mL (≈ 15.8 µM)
IC90 [2]: 2.2 µg/mL (≈ 3.9 µM)
melting point: 148 °C
IC90 [3]: 8.9 µg/mL (≈ 15.8 µM)

COc1nc2ccc(Br)cc2cc1C(c1ccccc1)C(O)(CCCCN(C)C)COc1ccc(C)cc1 (single isomer, unassigned) [Compound 5]
IC90 [1]: 4.1 µg/mL (≈ 7.1 µM)
IC90 [2]: 1.8 µg/mL (≈ 3.12 µM)
melting point: 146 °C
IC90 values STA 1 B29213 [3]: 4.1 µg/mL (≈ 7.1 µM)

COc1nc2ccccc2cc1C(c1ccc(-c2cnn(C)c2)cc1)C(O)(CCCCN(C)C)c1ccc2ccccc2c1 (single isomer, unassigned) [Compound 10]
IC90 [1]: 1.9 µg/mL (≈ 3.25 µM)
IC90 values MSM 1 ATCC607 [2]: 0.4 µg/mL (≈ 0.684 µM)
melting point: 190 °C
IC90 [3]: 1.9 µg/mL (≈ 3.25 µM)

COc1nc2ccc(Br)cc2cc1C(c1ccccc1)C(O)(CCCCN1CCCCC1)COCc1ccccc1 (single isomer, unassigned) [Compound 26]
IC90 [1]: 2 µg/mL (≈ 3.24 µM)
IC90 [2]: 2 µg/mL (≈ 3.24 µM)
IC90 [3]: 2 µg/mL (≈ 3.24 µM)

COc1nc2ccc(Br)cc2cc1C(c1ccc2c(c1)OCO2)C(O)(CCN(C)C)c1ccccc1 (single isomer, unassigned) [Compound 30]
IC90 values SPN 1 6305 [1]: 1.7 µg/mL (≈ 3.09 µM)
IC90 values MSM 1 ATCC607 [2]: 0.4 µg/mL (≈ 0.728 µM)
melting point: 159 °C
IC90 values STA 1 B29213 [3]: 55.0 µg/mL (≈ 100 µM)

COc1nc2ccc(Br)cc2cc1C(c1ccoc1)C(O)(CCc1ccc(F)cc1)CCN(C)C (single isomer, unassigned) [Compound 53]
IC90 [2]: 1.71 µg/mL (≈ 3.16 µM)
melting point: 122 °C
IC90 [3]: 8.58 µg/mL (≈ 15.8 µM)

COc1nc2ccccc2cc1C(c1cccc(-c2ccncc2)c1)C(O)(CCCCN(C)C)c1ccc2ccccc2c1 (single isomer, unassigned) [Compound 8]
IC90 [1]: 1.8 µg/mL (≈ 3.09 µM)
IC90 [2]: 1.8 µg/mL (≈ 3.09 µM)
IC90 values STA 1 B29213 [3]: 9.2 µg/mL (≈ 15.8 µM)

COc1nc2ccccc2cc1C(c1ccc(-c2cnn(C)c2)cc1)C(O)(CCCCN(C)C)c1ccc2ccccc2c1 (single isomer, unassigned) [Compound 11]
IC90 values SPN 1 6305 [1]: 1.9 µg/mL (≈ 3.25 µM)
IC90 values MSM 1 ATCC607 [2]: 1.9 µg/mL (≈ 3.25 µM)
IC90 values STA 1 B29213 [3]: 1.9 µg/mL (≈ 3.25 µM)

COc1nc2ccc(Br)cc2cc1C(c1ccccc1)C(O)(CCCCN1CCN(C)CC1)COc1ccccc1 (single isomer, unassigned) [Compound 20]
IC90 values SPN 1 6305 [1]: 9.8 µg/mL (≈ 15.8 µM)
IC90 values MSM 1 ATCC607 [2]: 9.8 µg/mL (≈ 15.8 µM)
melting point: 144 °C
IC90 values STA 1 B29213 [3]: 49.1 µg/mL (≈ 79.4 µM)

COc1nc2ccc(Br)cc2cc1C(c1ccccc1)C(O)(CCCCN1CCN(C)CC1)COCc1ccccc1 (single isomer, unassigned) [Compound 28]
IC90 values SPN 1 6305 [1]: 12.6 µg/mL (≈ 19.9 µM)
IC90 values MSM 1 ATCC607 [2]: 4.5 µg/mL (≈ 7.11 µM)
melting point: 122 °C
IC90 values STA 1 B29213 [3]: 10.0 µg/mL (≈ 15.8 µM)

COc1nc2ccc(Br)cc2cc1C(c1ccc(Cl)cc1)C(O)(CCCCN1CCN(C)CC1)COc1ccccc1 (single isomer, unassigned) [Compound 22]
IC90 values SPN 1 6305 [1]: 11.6 µg/mL (≈ 17.8 µM)
IC90 values MSM 1 ATCC607 [2]: 8.2 µg/mL (≈ 12.6 µM)
melting point: 158 °C
IC90 values STA 1 B29213 [3]: 32.7 µg/mL (≈ 50.1 µM)
